Measurements from the NIST ThermoML archive (doi:10.1021/je0301794).
± gives the expanded uncertainty stated by the source.

How the values were obtained:
[1] = xn = mol fraction of the nth substance listed; settings: 101.3 kPa, Liquid
[2] = excess molar enthalpy (molar enthalpy of mixing); xn = mol fraction of the nth substance listed; settings: 318.15 K, 101.3 kPa, Liquid

COC(=O)OC [dimethyl carbonate] + CCCCCCC
[1]
Settings	mass density [kg/m3]
293.15 K, x1 = 0.05	694 ± 0.5
293.15 K, x1 = 0.094	703.5 ± 0.5
293.15 K, x1 = 0.2039	729.2 ± 0.5
293.15 K, x1 = 0.324	761.2 ± 0.5
293.15 K, x1 = 0.4062	785.9 ± 0.5
293.15 K, x1 = 0.5059	819.4 ± 0.5
293.15 K, x1 = 0.6099	859.2 ± 0.5
293.15 K, x1 = 0.6987	897.8 ± 0.5
293.15 K, x1 = 0.8086	952.7 ± 0.5
293.15 K, x1 = 0.9029	1006.6 ± 0.5
293.15 K, x1 = 0.9504	1036.6 ± 0.5
293.15 K, x1 = 1	1070 ± 0.6
298.15 K, x1 = 0.0594	691.6 ± 0.5
298.15 K, x1 = 0.1204	704.9 ± 0.5
298.15 K, x1 = 0.2132	726.7 ± 0.5
298.15 K, x1 = 0.3135	753.1 ± 0.5
298.15 K, x1 = 0.4018	779 ± 0.5
298.15 K, x1 = 0.4716	801.6 ± 0.5
298.15 K, x1 = 0.6051	851 ± 0.5
298.15 K, x1 = 0.6946	889.3 ± 0.5
298.15 K, x1 = 0.8031	943 ± 0.5
298.15 K, x1 = 0.902	999.5 ± 0.5
298.15 K, x1 = 0.9477	1028.2 ± 0.5
298.15 K, x1 = 1	1063.5 ± 0.6
303.15 K, x1 = 0.0586	687.2 ± 0.5
303.15 K, x1 = 0.0873	693.2 ± 0.5
303.15 K, x1 = 0.1996	718.7 ± 0.5
303.15 K, x1 = 0.299	744.2 ± 0.5
303.15 K, x1 = 0.4009	773.6 ± 0.5
303.15 K, x1 = 0.5081	808.9 ± 0.5
303.15 K, x1 = 0.6069	846.2 ± 0.5
303.15 K, x1 = 0.6979	885.2 ± 0.5
303.15 K, x1 = 0.8051	938 ± 0.5
303.15 K, x1 = 0.9069	995.8 ± 0.5
303.15 K, x1 = 0.9638	1031.6 ± 0.5
303.15 K, x1 = 1	1056.5 ± 0.6
313.15 K, x1 = 0.0649	679.3 ± 0.5
313.15 K, x1 = 0.1157	690.1 ± 0.5
313.15 K, x1 = 0.3432	746.6 ± 0.5
313.15 K, x1 = 0.4378	775.1 ± 0.5
313.15 K, x1 = 0.5458	812 ± 0.5
313.15 K, x1 = 0.6259	842.9 ± 0.5
313.15 K, x1 = 0.7191	883.2 ± 0.5
313.15 K, x1 = 0.8128	929.3 ± 0.5
313.15 K, x1 = 0.8798	966.5 ± 0.5
313.15 K, x1 = 0.9536	1012 ± 0.5
313.15 K, x1 = 0.9822	1031.1 ± 0.5
313.15 K, x1 = 1	1043.4 ± 0.5
318.15 K, x1 = 0.0693	675.1 ± 0.5
318.15 K, x1 = 0.1044	682.5 ± 0.5
318.15 K, x1 = 0.1947	702.6 ± 0.5
318.15 K, x1 = 0.2734	722 ± 0.5
318.15 K, x1 = 0.3512	743.2 ± 0.5
318.15 K, x1 = 0.419	763.3 ± 0.5
318.15 K, x1 = 0.4889	785.9 ± 0.5
318.15 K, x1 = 0.5518	808.1 ± 0.5
318.15 K, x1 = 0.61	830.3 ± 0.5
318.15 K, x1 = 0.6632	852 ± 0.5
318.15 K, x1 = 0.7142	874.6 ± 0.5
318.15 K, x1 = 0.762	897.1 ± 0.5
318.15 K, x1 = 0.8077	920.1 ± 0.5
318.15 K, x1 = 0.8514	943.8 ± 0.5
318.15 K, x1 = 0.8883	965 ± 0.5
318.15 K, x1 = 0.9289	989.7 ± 0.5
318.15 K, x1 = 0.964	1012.4 ± 0.5
318.15 K, x1 = 1	1036.9 ± 0.5

[2]
Settings	excess molar enthalpy [kJ/mol]
x1 = 0.095	0.798 ± 0.018
x1 = 0.1875	1.33 ± 0.029
x1 = 0.2819	1.73 ± 0.037
x1 = 0.3677	1.98 ± 0.042
x1 = 0.4442	2.1 ± 0.044
x1 = 0.5016	2.14 ± 0.045
x1 = 0.5205	2.14 ± 0.045
x1 = 0.5497	2.14 ± 0.045
x1 = 0.5542	2.13 ± 0.045
x1 = 0.5906	2.11 ± 0.044
x1 = 0.6326	2.06 ± 0.043
x1 = 0.674	1.98 ± 0.042
x1 = 0.7188	1.85 ± 0.039
x1 = 0.7582	1.7 ± 0.036
x1 = 0.8053	1.49 ± 0.032
x1 = 0.8488	1.25 ± 0.027
x1 = 0.892	0.962 ± 0.021
x1 = 0.929	0.656 ± 0.015
x1 = 0.9663	0.328 ± 0.009
x1 = 1	0 ± 0.002
